{"source": "paper PMC10619140", "about": "“Thinking outside the CaaX-box: an unusual reversible prenylation on ALDH9A1” (RSC Chemical Biology, 2023)", "key": {"[1]": {"biological_target": "T1, ALDH9A1 (Homo sapiens, UniProt P49189)", "T1 construct": "recombinant ALDH9A1", "T1 sequence (P49189 whole entry)": "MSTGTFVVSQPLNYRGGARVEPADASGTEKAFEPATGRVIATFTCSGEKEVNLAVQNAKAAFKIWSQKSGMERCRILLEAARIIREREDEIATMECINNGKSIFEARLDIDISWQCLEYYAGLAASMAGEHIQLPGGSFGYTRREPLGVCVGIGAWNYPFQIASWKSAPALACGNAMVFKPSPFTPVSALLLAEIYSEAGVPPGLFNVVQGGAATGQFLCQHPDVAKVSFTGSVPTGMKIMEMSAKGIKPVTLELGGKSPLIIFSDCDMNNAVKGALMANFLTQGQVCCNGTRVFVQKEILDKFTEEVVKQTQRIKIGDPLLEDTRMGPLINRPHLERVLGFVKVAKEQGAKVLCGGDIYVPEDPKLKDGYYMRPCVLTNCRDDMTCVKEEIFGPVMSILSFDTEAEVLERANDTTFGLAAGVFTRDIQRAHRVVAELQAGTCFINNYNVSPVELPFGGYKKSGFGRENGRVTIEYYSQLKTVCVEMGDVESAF", "test": "inhibition of TMABAL oxidation by purified enzyme (NADH formation); preincubation and dialysis; also slow substrate", "type": "biochemical"}, "[2]": {"biological_target": "T1, ALDH9A1", "test": "MST (RED-tris-NTA labelled enzyme); also NADH-formation activity assay", "type": "binding"}, "[3]": {"biological_target": "T1, ALDH9A1", "test": "MST; also inhibition of TMABAL and ABAL oxidation at […]", "type": "binding"}}}
{"smiles": "CC(C)=CCC/C(C)=C/CC/C(C)=C/C=O", "note": "[FCHO, farnesal]", "values": [{"measurement": "IC50", "setting": "[1]", "value": "~10", "unit": "µM"}]}
{"smiles": "C[N+](C)(C)CCCC=O", "note": "[TMABAL]", "values": [{"measurement": "Kd", "setting": "[2]", "value": 11, "unit": "µM"}]}
{"smiles": "C[N+](C)(C)NCCC(=O)[O-]", "note": "[meldonium, 3-(2,2,2-trimethylhydrazinium) propionate]", "values": [{"measurement": "Kd", "setting": "[3]", "value": 1200, "unit": "µM"}]}
